Results as given in patent US9000174B2, “4-phenylsulfonamidopiperidines as calcium channel blockers” (Purdue Pharma L.P., priority 2004, dated 2015).
Where a name gives a salt, the structure may show the parent alone.

Tests used:
[1] = target: T1, L-type calcium channel (LTCC) (Rattus norvegicus, UniProt P22002); assay: FLIPR calcium mobilization (and/or electrophysiological) assay for L-type calcium channel; assay type: cell-based; conditions: calcium mobilization and/or electrophysiological in vitro assay; differentiated A7r5 cells, 90 mM KCl
T1 construct: differentiated A7r5 cells were trypsinized, then seeded on tissue culture treated 96-well clear-bottom black plates; endogenous in cells; host or cells: differentiated A7r5 cells (ATCC)
Procedure: A7r5 (ATCC) cells were maintained and routinely cultured in A7r5 growth medium consisting of Dulbecco's Modified Eagles Medium containing 10% FBS, 100 U/mL penicillin, 100 μg/mL streptomycin, 4 mM L-glutamine, and 0.15% sodium bicarbonate. 80-90% confluent flasks of cells were differentiated using the following differentiation medium: A7r5 Growth Medium plus 1 mM dibutyryl cyclic AMP (Sigma). Cells were differentiated for 8 days by replacing differentiation medium every 2-3 days.
One day prior to performing this assay, differentiated A7r5 cells were trypsinized, then seeded on tissue culture treated 96-well clear-bottom black plates (Becton Dickinson, Franklin Lakes, N.J.) at a dilution of 1:1 from a confluent T150 cm^2 flask. On the day of the assay, the plates were washed with A7r5 wash buffer (127 mM NaCl, 2 mM MgCl2, 700 μM NaH2PO4, 5 mM CaCl2, 5 mM NaHCO3, 8 mM HEPES, 10 mM glucose, pH 7.4), then loaded with 0.1 mL of A7r5 wash buffer containing Fluo-4 (3 μM final concentration, Molecular Probes, Eugene, Oreg.). After 1 hour, the cells were washed with 0.1 mL A7r5 wash buffer and resuspended in 0.05 mL A7r5 assay buffer that was composed of A7r5 wash buffer plus 50 μM valinomycin (Sigma). Plates were then transferred to a FLIPR^96 for assay. The FLIPR measured basal Fluo-4 fluorescence for 15 seconds, then added 0.05 mL of each compound tested diluted in A7r5 assay buffer at final concentrations ranging from about 846 pM to about 17 μM. Fluo-4 fluorescence was then measured for 5 minutes. 0.1 mL KCl agonist dissolved in A7r5 assay buffer was then added to the cells to produce a final concentration of 90 mM KCl, and fluorescence was measured for another 45 seconds. Data were collected over the entire time course and analyzed using Excel, Graph Pad Prism, or Activity Base software.

[2] = target: T2, N-type calcium channel (NTCC) (Homo sapiens, UniProt Q00975); assay: FLIPR calcium mobilization (and/or electrophysiological) assay for N-type calcium channel; assay type: cell-based; conditions: calcium mobilization and/or electrophysiological in vitro assay; differentiated IMR32 cells, 90 mM KCl, 5 μM nitrendipine
T2 construct: endogenous in cells; host or cells: differentiated IMR32 cells (ATCC)
T2 sequence (Q00975 whole entry): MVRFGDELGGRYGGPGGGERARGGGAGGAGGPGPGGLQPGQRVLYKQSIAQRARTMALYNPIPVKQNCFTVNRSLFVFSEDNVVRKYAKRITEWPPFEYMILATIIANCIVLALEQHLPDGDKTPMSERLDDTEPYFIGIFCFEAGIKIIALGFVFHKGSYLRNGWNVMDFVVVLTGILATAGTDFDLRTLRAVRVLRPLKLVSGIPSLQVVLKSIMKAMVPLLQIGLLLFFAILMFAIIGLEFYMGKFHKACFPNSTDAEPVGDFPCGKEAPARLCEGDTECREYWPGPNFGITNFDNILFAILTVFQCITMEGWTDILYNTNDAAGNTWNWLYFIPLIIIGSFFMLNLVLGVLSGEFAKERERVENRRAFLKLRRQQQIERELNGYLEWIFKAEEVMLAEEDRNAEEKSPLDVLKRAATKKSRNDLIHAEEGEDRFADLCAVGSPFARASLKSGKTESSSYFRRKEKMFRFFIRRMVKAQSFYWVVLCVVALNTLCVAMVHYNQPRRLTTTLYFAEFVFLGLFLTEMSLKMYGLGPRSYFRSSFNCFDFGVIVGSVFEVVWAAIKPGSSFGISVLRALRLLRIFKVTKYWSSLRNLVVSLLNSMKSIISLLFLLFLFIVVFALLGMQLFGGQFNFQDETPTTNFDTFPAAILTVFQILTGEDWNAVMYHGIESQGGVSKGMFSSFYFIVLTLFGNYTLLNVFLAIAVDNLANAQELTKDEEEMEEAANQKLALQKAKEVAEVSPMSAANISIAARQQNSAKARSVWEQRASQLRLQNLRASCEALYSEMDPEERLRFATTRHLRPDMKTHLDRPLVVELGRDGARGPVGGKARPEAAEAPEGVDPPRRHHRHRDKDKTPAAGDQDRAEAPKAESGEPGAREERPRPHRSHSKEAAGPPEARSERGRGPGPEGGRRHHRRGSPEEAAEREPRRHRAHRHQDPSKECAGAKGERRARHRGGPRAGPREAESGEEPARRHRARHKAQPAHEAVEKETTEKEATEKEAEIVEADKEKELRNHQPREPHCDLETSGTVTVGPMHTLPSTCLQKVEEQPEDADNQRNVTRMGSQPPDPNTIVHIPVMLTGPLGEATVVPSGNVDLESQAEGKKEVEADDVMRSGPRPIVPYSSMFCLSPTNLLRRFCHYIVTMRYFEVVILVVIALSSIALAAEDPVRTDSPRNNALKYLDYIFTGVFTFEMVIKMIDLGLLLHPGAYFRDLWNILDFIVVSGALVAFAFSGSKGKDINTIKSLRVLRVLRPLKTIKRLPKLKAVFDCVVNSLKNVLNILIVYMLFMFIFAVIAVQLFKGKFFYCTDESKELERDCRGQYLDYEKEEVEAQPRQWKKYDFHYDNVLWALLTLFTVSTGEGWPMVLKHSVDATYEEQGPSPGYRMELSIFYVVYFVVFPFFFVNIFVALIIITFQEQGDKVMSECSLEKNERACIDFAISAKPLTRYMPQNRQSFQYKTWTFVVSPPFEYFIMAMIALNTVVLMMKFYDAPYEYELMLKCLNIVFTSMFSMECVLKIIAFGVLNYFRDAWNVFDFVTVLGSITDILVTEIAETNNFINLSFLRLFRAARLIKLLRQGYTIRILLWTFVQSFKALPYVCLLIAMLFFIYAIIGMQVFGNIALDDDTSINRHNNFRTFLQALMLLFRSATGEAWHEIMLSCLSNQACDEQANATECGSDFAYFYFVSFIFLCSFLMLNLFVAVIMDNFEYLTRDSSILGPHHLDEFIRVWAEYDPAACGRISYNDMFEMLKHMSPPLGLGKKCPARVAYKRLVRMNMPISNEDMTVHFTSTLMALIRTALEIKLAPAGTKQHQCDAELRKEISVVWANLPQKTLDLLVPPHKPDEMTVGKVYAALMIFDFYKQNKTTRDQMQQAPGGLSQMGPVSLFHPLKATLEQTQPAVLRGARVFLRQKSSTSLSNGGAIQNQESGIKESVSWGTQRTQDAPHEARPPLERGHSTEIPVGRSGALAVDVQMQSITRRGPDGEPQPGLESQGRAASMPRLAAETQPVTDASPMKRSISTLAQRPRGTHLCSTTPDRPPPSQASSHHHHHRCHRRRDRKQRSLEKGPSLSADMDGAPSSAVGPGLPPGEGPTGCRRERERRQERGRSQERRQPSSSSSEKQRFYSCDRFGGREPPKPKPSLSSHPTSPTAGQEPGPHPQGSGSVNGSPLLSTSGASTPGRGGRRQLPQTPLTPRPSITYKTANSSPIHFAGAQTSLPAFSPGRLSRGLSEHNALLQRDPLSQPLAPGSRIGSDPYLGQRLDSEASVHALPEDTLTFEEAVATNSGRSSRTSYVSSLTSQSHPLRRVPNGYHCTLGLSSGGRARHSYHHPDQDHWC
T2 sequence (P54284 whole entry partner): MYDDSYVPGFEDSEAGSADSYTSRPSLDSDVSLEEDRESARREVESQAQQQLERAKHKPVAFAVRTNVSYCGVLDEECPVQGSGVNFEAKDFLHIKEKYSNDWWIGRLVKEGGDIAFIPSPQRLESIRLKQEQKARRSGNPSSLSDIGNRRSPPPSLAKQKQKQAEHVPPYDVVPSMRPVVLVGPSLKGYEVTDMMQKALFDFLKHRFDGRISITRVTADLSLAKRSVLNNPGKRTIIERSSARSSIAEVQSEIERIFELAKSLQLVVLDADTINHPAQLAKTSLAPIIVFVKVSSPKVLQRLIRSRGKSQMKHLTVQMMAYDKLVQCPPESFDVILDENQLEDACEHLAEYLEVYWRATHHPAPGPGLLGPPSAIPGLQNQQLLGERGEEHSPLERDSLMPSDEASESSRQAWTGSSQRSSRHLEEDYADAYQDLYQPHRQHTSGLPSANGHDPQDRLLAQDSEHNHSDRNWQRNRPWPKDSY
T2 sequence (P54289 25-956 partner limits assumed): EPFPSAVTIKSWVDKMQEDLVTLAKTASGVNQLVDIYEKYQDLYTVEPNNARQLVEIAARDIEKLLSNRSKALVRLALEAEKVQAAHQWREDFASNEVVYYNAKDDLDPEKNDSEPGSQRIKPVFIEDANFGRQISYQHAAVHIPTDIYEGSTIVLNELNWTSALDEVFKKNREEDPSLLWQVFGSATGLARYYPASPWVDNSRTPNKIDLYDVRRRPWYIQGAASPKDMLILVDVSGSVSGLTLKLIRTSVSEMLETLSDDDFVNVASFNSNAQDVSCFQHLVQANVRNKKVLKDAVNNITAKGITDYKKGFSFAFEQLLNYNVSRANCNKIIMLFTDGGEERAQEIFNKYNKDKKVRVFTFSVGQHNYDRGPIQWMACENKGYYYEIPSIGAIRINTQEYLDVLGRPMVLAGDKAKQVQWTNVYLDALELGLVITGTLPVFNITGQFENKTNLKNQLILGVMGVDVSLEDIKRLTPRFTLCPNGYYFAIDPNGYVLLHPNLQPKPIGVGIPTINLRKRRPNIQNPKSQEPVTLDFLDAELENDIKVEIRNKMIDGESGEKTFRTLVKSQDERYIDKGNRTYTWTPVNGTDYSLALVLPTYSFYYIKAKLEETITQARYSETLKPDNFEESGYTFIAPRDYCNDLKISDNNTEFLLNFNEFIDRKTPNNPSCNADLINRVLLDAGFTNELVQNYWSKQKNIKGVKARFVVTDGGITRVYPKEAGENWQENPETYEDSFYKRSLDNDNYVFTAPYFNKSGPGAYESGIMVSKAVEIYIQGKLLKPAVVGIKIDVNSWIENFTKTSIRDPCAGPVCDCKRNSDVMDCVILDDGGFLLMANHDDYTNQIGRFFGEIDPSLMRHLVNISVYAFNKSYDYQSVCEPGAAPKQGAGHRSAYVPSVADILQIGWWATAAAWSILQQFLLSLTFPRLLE
T2 sequence (P54289 957-1103 partner limits assumed): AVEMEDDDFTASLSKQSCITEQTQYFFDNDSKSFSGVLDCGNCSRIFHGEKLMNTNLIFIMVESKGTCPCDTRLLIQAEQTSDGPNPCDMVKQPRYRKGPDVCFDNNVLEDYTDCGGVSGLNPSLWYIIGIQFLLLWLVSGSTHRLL
Procedure: Unless noted otherwise, cell culture reagents were purchased from Life Technologies of Rockville, Md. IMR32 cells (American Type Culture Collection, ATCC, Manassas, Va.) were routinely cultured in growth medium consisting of minimum essential medium containing 10% fetal bovine serum (FBS, Hyclone, Logan, Utah), 100 U/mL penicillin, 100 μg/mL streptomycin, 2 mM L-glutamine, 1 mM sodium pyruvate, and 1×MEM non-essential amino acids. 80-90% confluent flasks of cells were differentiated using the following differentiation medium: Growth medium plus 1 mM dibutyryl cyclic AMP (Sigma, St. Louis, Mo.), and 2.5 μM bromodeoxyuridine (Sigma). Cells were differentiated for 8 days by replacing differentiation medium every 2-3 days.
One day prior to performing this assay, differentiated IMR32 cells were treated with 1× CellStripper, and seeded on poly-D-lysine-coated 96-well clear-bottom black plates (Becton Dickinson, Franklin Lakes, N.J.) at 200,000 cells/well. On the day of the assay, the cell plates were washed with IMR32 buffer (127 mM NaCl, 1 mM KCl, 2 mM MgCl2, 700 μM NaH2PO4, 5 mM CaCl2, 5 mM NaHCO3, 8 mM HEPES, 10 mM glucose, pH 7.4), then pre-stimulated with KCl and loaded as follows: 0.05 mL of IMR32 buffer, 0.05 mL of each compound tested diluted in IMR32 buffer containing 20 μM nitrendipine (Sigma), and 0.1 mL KCl dissolved in IMR32 buffer, plus Fluo-4 were added (3 μM final concentration, Molecular Probes, Eugene, Oreg.). Final test compound concentrations ranged from about 846 pM to about 17 μM, final nitrendipine concentration was 5 μM, and final KCl concentration was 90 mM. After 1 hour, the cells were washed twice with 0.05 mL of each compound tested in nitrendipine-containing IMR32 buffer (no KCl or Fluo-4), and then replaced with 0.1 mL of each compound tested in nitrendipine-containing IMR32 buffer. Plates were then transferred to a Fluorimetric Imaging Plate Reader (FLIPR^96, Molecular Devices, Inc., Sunnyvale, Calif.) for assay. The FLIPR measured basal Fluo-4 fluorescence for 315 seconds (i.e., 5 minutes and 15 seconds), then added 0.1 mL KCl agonist dissolved in IMR32 buffer and measured fluorescence for another 45 seconds. Final test compound concentrations on the cells after FLIPR read ranged from about 846 pM to about 17 μM, final nitrendipine concentration was 5 μM, and final KCl concentration was 90 mM. Data were collected over the entire time course and analyzed using Excel, Graph Pad Prism (version 3.02, Graph Pad, San Diego, Calif.), or Activity Base (version 5.1, IDBS, Parsippany, N.J.) software.
N-type calcium channel expressing HEK-293 cells were created in two stages. Stage 1 was created as follows. The rat α1b, and β3 cDNA expression constructs (2.5 μg each) were co-transfected into human embryonic kidney (HEK-293) cells by Lipofectamine Plus reagent (Invitrogen), as per manufacturer's instructions. 24 hours later, cells were split in limiting dilution into multiple 96-well plates in selection media containing 20 μg/mL blasticidin and 500 μg/mL geneticin, and incubated for 3 weeks at 37° C., 5% CO2, 95% humidity. Plates containing ≦1 clone per well were cultured until wells positive for single clones were confluent. Individual clones were then arrayed into columns of a destination 96-well plate, and partly split into 6-well plates for culture maintenance. Array plates were washed once with IMR32 buffer and cells loaded for 1 hour with 0.1 mL of IMR32 buffer containing Fluo-4 (3 μM final concentration, Molecular Probes). Then they were washed twice with 0.1 mL of IMR32 buffer, and replaced with 0.1 mL IMR32 buffer. Plates were then transferred to a FLIPR^96 for assay. The FLIPR measured basal Fluo-4 fluorescence for 315 seconds, then added 0.1 mL KCl agonist dissolved in IMR32 buffer and measured fluorescence for another 45 seconds. Final KCl concentration was 90 mM. Data were collected over the entire time course and analyzed using Excel, Graph Pad Prism, or Activity Base software. […]

CCCc1ccc(S(=O)(=O)N2CCC(N(C3CC3)S(=O)(=O)c3cccc(C(F)(F)F)c3)CC2)cc1 [N-Cyclopropyl-N-[1-(4-propylphenylsulfonyl)piperidin-4-yl]-3-trifluoromethylbenzenesulfonamide]
IC50 [1]: 940 nM | IC50 [2]: 440 nM

COc1ccc(C(=O)N2CCC(N(C3CC3)S(=O)(=O)c3cccc(C(F)(F)F)c3)CC2)cc1C(F)(F)F [N-Cyclopropyl-N-{1-[(3-trifluoromethyl-4-methoxy)benzoyl]piperidin-4-yl}-3-trifluoromethylbenzenesulfonamide]
IC50 [1]: 4570 nM | IC50 [2]: 300 nM

N[C@@H](C(=O)N1CCC(N(C2CC2)S(=O)(=O)c2cccc(C(F)(F)F)c2)CC1)C1CCCCC1 [(2R) N-[1-(2-Amino-2-cyclohexylethanoyl)piperidin-4-yl]-N-cyclopropyl-3-trifluoromethylbenzenesulfonamide]
IC50 [1]: > 20000 nM | IC50 [2]: 440 nM

O=S(=O)(c1cccc(C(F)(F)F)c1)N(C1CC1)C1CCN(Cc2ccnc3ccccc23)CC1 [N-cyclopropyl-N-[1-(4-quinolinylmethyl)piperidin-4-yl]-3-trifluoromethylbenzenesulfonamide]
IC50 [1]: 1700 nM | IC50 [2]: 860 nM

O=C(CCC(c1ccc(F)cc1)c1ccc(F)cc1)N1CCC(N(C2CC2)S(=O)(=O)c2cccc(F)c2)CC1 [N-cyclopropyl-N-{1-[4,4-bis(4-fluorophenyl)butanoyl]piperidin-4-yl}-3-fluorobenzenesulfonamide]
IC50 [1]: 1430 nM | IC50 [2]: 970 nM

O=C(CC=C(c1ccc(F)cc1)c1ccc(F)cc1)N1CCC(N(C2CC2)S(=O)(=O)c2ccccc2)CC1 [N-cyclopropyl-N-{1-[4,4-bis(4-fluorophenyl)but-3-enoyl]piperidin-4-yl}benzenesulfonamide]
IC50 [1]: 2590 nM | IC50 [2]: 1240 nM

O=S(=O)(c1cccc(C(F)(F)F)c1)N(C1CC1)C1CCN(CCOC(c2ccc(F)cc2)c2ccc(F)cc2)CC1 [N-Cyclopropyl-N-{1-[2-bis(4-fluorophenyl)methoxyethyl]piperidin-4-yl}-3-trifluoromethylbenzenesulfonamide]
IC50 [1]: 2230 nM | IC50 [2]: 780 nM

CN[C@@H](CC(C)C)C(=O)N1CCC(N(C(C)C)S(=O)(=O)c2cccc(C(F)(F)F)c2)CC1 [(2S) N-Isopropyl-N-[1-(4-methyl-2-methylaminopentanoyl)-piperidin-4-yl]-3-trifluoromethylbenzenesulfonamide fumarate]
IC50 [1]: > 20000 nM | IC50 [2]: 870 nM

CN[C@@H](CC(C)C)C(=O)N1CCC(N(CC(C)C)S(=O)(=O)c2cccc(C(F)(F)F)c2)CC1 [(2S) N-i-butyl-N-[1-(4-methyl-2-methylaminopentanoyl)piperidin-4-yl]-3-trifluoromethylbenzenesulfonamide]
IC50 [1]: 9120 nM | IC50 [2]: 950 nM

CCCC(CC(=O)N1CCC(N(C2CC2)S(=O)(=O)c2cccc(C(F)(F)F)c2)CC1)N1CCSCC1 (centres unmarked) [N-Cyclopropyl-N-[1-(3-thiomorpholin-4-yl-hexanoyl)piperidin-4-yl]-3-trifluoromethylbenzenesulfonamide]
IC50 [1]: 10000 to 20000 nM | IC50 [2]: 280 nM

CN[C@@H](CC(C)C)C(=O)N1CCC(N(C)S(=O)(=O)c2cccc(C(F)(F)F)c2)CC1 [(2S) N-Methyl-N-[1-(4-methyl-2-methylaminopentanoyl)-piperidin-4-yl]-3-trifluoromethylbenzenesulfonamide fumarate]
IC50 [1]: 5120 nM | IC50 [2]: 390 nM

CN[C@@H](CC(C)C)C(=O)N1CCC(N(C2CC2)S(=O)(=O)c2cccc(C(F)(F)F)c2)CC1 [(2S) N-cyclopropyl-N-[1-(4-methyl-2-methylamino-pentanoyl)piperidin-4-yl]-3-trifluoromethylbenzenesulfonamide]
IC50 [1]: 10000 nM | IC50 [2]: 360 nM

CC(C)C[C@H](N)C(=O)N1CCC(N(C2CC2)S(=O)(=O)c2ccccc2)CC1 [(2S) N-[1-(2-amino-4-methylpentanoyl)piperidin-4-yl]-N-cyclopropyl-benzenesulfonamide]
IC50 [1]: 10000 to 20000 nM | IC50 [2]: 4280 nM

NC(Cc1ccc(F)cc1)C(=O)N1CCC(N(C2CC2)S(=O)(=O)c2cccc(C(F)(F)F)c2)CC1 (centres unmarked) [N-{1-[2-Amino-3-(4-fluorophenyl)propionyl]piperidin-4-yl}-N-cyclopropyl-3-trifluoromethylbenzenesulfonamide]
IC50 [1]: 8600 nM | IC50 [2]: 180 nM

O=C(CCC(c1ccc(F)cc1)c1ccc(F)cc1)N1CCC(N(C2CC2)S(=O)(=O)c2ccccc2)CC1 [N-cyclopropyl-N-{1-[4,4-bis(4-fluorophenyl)butanoyl]piperidin-4-yl}benzenesulfonamide]
IC50 [1]: 3240 nM | IC50 [2]: 1090 nM

O=S(=O)(c1cccc(C(F)(F)F)c1)N(C1CC1)C1CCN(CCCC(c2ccc(F)cc2)c2ccc(F)cc2)CC1 [N-Cyclopropyl-N-{1-[4,4-bis(4-fluorophenyl)butyl]piperidin-4-yl}-3-trifluoromethylbenzenesulfonamide]
IC50 [1]: 3780 nM | IC50 [2]: 110 nM
